Source: US6562853B2, “2,5-dioxo-3-(2-propynyl)imidazolidin-1-ylmethyl 2,2-dimethyl-3-(alenyl) cyclopropane carboxylate compounds and pesticidal methods and compositions utilizing the same” (Sumitomo Chemical Company, Limited, priority 2001, dated 2003)

Experiments:
[1] = test system: adult female common mosquitoes; experiment: Knockdown of common mosquitoes by oily formulation sprayed into 70 cm cubic chamber (Test Example 3); format: in vivo, common mosquito (Culex pipiens pallens); settings: 0.00625% oily formulation, 0.7 ml sprayed into 70 cm cubic chamber; 10 adult female common mosquitoes; counted over 10 minutes
Excerpt: Three (3) 0.00625% oily formulations were produced with the following pesticidal compounds: […]
In the compound encompassed by formula (A), the weight ratio of trans isomers thereof to the cis isomers thereof is 8:2. The 0.00625% oily formulations were produced by dissolving, respectively, 0.00625 parts of the above pesticidal compounds in 10 parts of dichloromethane and by mixing each of the resulting mixture with 89.99375 parts of deodorized kerosene.
Ten (10) adult female common mosquitoes were released in each of the cubic chambers having a side length of 70 cm. Seven-tenths milliliters (0.7 ml) of the 0.00625% oily formulations were then sprayed, respectively, into each of the chambers from the side windows of the chambers, utilizing spray guns set to a pressure of 8.8×10^4 Pa. The numbers of knockdowned common mosquitoes were counted periodically over 10 minutes. The times utilized to knockdown half of the tested common mosquitoes (KT50) were determined from the number of knockdowned common mosquitoes.

Adult houseflies [2] = experiment: Knockdown of houseflies by oily formulation sprayed into 70 cm cubic chamber (Test Example 1); format: in vivo, housefly (Musca domestica); settings: 0.025% oily formulation, 0.7 ml sprayed into 70 cm cubic chamber; 5 male and 5 female adult houseflies; counted over 10 minutes
Protocol: A 0.025% oily formulation was produced by dissolving 0.025 parts of the present invention compound 1 in 10 parts of dichloromethane and by mixing the resulting mixture with 89.975 parts of deodorized kerosene.
Adult houseflies (5 of each male and female) were released in a cubic chamber having a side length of 70 cm. Seven-tenths milliliters (0.7 ml) of the 0.025% oily formulation was then sprayed into the chamber from a side window of the chamber, utilizing a spray gun set to a pressure of 8.8×10^4 Pa. The number of knockdowned houseflies was counted periodically over 10 minutes. The time utilized to knockdown half of the tested houseflies (KT50) was determined from the number of knockdowned houseflies. The KT50 was 2.3 minutes.

Adult houseflies [3] = experiment: Knockdown rate of houseflies in plastic cup after direct spray of oily formulation (Test Example 2); format: in vivo, housefly (Musca domestica); settings: 0.1% oily formulation (table), 0.5 ml sprayed from about 30 cm above cup; 10 adult houseflies; counted 10 seconds thereafter
Protocol: A 0.1% oily formulation was produced by dissolving 0.1 part of the present invention compound 1 in 10 parts of dichloromethane and by mixing the resulting mixture with 89.9 parts of deodorized kerosene.
Ten (10) adult houseflies (5 of each male and female) were placed in a 650 ml plastic cup. The opening of the plastic cup was covered with a nylon mesh to confine the houseflies to the plastic cup. The plastic cup was placed on top of a metal screen placed in a metal chamber having the dimensions 46 cm×46 cm×70 cm. Five-tenths milliliters (0.5 ml) of the […] oily formulation was then sprayed from about 30 cm above the top area of the plastic cup, utilizing a spray gun set to a pressure of 8.8×10^4 Pa. The number of knockdowned houseflies were counted 10 seconds thereafter. The knockdown rate was determined from the number of knockdowned houseflies achieved. The knockdown rate was 95%.

Structure (SMILES)	KT50 (time utilized to knockdown half of the tested common mosquitoes) [1] [min]	KT50 (time utilized to knockdown half of the tested houseflies) (Adult houseflies [2]) [min]	Knockdown rate (Adult houseflies [3]) [%]
C#CCN1CC(=O)N(COC(=O)[C@@H]2[C@H](/C=C\C)C2(C)C)C1=O [Present invention compound 3, 2,5-dioxo-3-(2-propynyl)imidazolidin-1-ylmethyl (1R)-cis-2,2-dimethyl-3-((Z)1-propenyl)cyclopropanecarboxylate]	1.4	–	–
C#CCN1CC(=O)N(COC(=O)C2C(C=C(C)C)C2(C)C)C1=O (single isomer, unassigned) [Compound c, reference compound]	2.9	–	–
C#CCN1CC(=O)N(COC(=O)[C@@H]2[C@@H](/C=C\C)C2(C)C)C1=O [Present invention compound 1, 2,5-dioxo-3-(2-propynyl)imidazolidin-1-ylmethyl (1R)-trans-2,2-dimethyl-3-((Z)1-propenyl)cyclopropanecarboxylate]	0.99	2.3	95
